Measurements as given in paper PMC7237762, “Total Synthesis and Biological Evaluation of Kakeromamide A and Its Analogues” (Frontiers in Chemistry, 2020).

Experiments:
neurons = assay: Cell cytotoxicity toward neurons (Hoechst 33342 staining); format: cell-based; conditions: 2.5, 5 and 10 μM, n = 3
Excerpt: (§1) Bioactive compounds modulating proliferation and differentiation of neural stem cells are required as chemical probes to study about mechanism of neural development or lead compounds for regenerative medicine. In order to evaluate neural differentiation-modulating activities of kakeromamide A and its analogs, we elected to perform the biological tests using the same procedure that we reported in the isolation paper (Nakamura et al., [2018]). Neural stem cells were obtained following the procedure (Nakayama and Inoue, [2006]; Iwata et al., [2016]) with modification. 2.5, 5, and 10 μM of kakeromamide A or its respective derivative was added to astrocytes or neurons. The cell cytotoxicity of kakeromamide A and its analogs toward astrocytes or neurons was carried out using Hoechst 33342 staining (Figure 7).
(§2) Figure 7 Cytotoxicity of Kakeromamide A and Its Analogs. (A) Percentages of cell numbers calculated by Hoechst 33342 positive cells, compared to that of control, in evaluating effects of kakeromamide A and its analogs for astrocytes (n = 3, means ± S.D., *p < 0.05). (B) Percentages of cell numbers calculated by Hoechst 33342 positive cells, compared to that of control, in evaluating effects of kakeromamide A and its analogs for neurons (n = 3, means ± S.D., *p < 0.05).

neural stem cells (NSCs) [1] = assay: NSC differentiation assay, astrocytic differentiation (GFAP immunostaining); format: cell-based; conditions: 2.5, 5 and 10 μM; 72 hours in differentiation medium; anti-GFAP immunostaining, Hoechst 33342 nuclei; n = 3
Method: (§3) Next, kakeromamide A or its respective derivative was exposed at three concentrations (2.5, 5, and 10 μM) during differentiation of neural stem cells (NSCs). The effects of kakeromamide A and its analogs on the neural differentiation into neurons or astrocytes were evaluated by using NeuO (Er et al., [2015]) a fluorescent probe which could selectively stain neurons, or immunostaining of an astrocyte marker GFAP (glial fibrillary acidic protein), respectively. The nuclei were stained by using Hoechst 33342 followed by the microscopic analysis. Their activities were determined by calculating a ratio NeuO or GFAP positive cells to whole cells and comparing with that of the control. […] Furthermore, the astrocytic or neuronal differentiation were promoted or inhibited, respectively, by treatment with four analogs of compound 1.
(§4) V. Procedures for Biological Tests:
(§5) Induction of neural stem cells in vitro: Neural stem cells (NSCs) were obtained following the procedure (Iwata, et al., 2016; Nakayama, et al., 2006) with modification. Embryoid bodies (EBs) were induced by hanging drop method for 72 hours using 7,500 cells per 20 µL of ESCs culturing medium without LIF. Then the EBs were cultured in non-adhesive bacterial dishes in Neuron Culture Medium (Sumitomo Bakelite, Tokyo, Japan) supplemented with 20 ng/mL rhEGF (R&D Systems, Minneapolis, MN, USA) and 20 ng/mL rhFGF-2 (R&D Systems). […]

Hela cells = conditions: preliminary biological tests of the isolated natural product; ref Nakamura et al., 2018; read-out: cytotoxicity IC50 against Hela cells; cited from earlier work
Excerpt: (§6) Marine cyanobacteria have been playing a pivotal role in producing structurally diversified and biologically intriguing peptides (Luesch et al., [2001]; Guzman-Martinez et al., [2007]; Zainuddin et al., [2007]). In 2018, we reported the isolation of a novel cyclopeptide, kakeromamide A (Figure 1), from the marine cyanobacterium Moorea bouillonii collected near Japan (Nakamura et al., [2018]). […] To the best of our knowledge, this is the first example of marine cyclopeptide t ...

neural stem cells (NSCs) [2] = conditions: isolated natural product; ref Nakamura et al., 2018; cited from earlier work
Excerpt: as §6

astrocytes = assay: Cell cytotoxicity toward astrocytes (Hoechst 33342 staining); format: cell-based; conditions: 2.5, 5 and 10 μM, n = 3
Excerpt: as §1, §2

neural stem cells (NSCs) [3] = assay: NSC differentiation assay, neuronal differentiation (NeuO staining); format: cell-based; conditions: 2.5, 5 and 10 μM, 72 hours in differentiation medium, Hoechst 33342 nuclei, n = 3
Method: as §3, §4, §5

## Kakeromamide A
neurons
  cytotoxicity toward neurons (cell number by Hoechst 33342 positive cells vs control): No significant cytotoxicity
Neural stem cells (NSCs) [1]
  astrocytic differentiation of NSCs (ratio of GFAP positive cells to whole cells vs control): promoting differentiation of NSCs into astrocytes
Hela cells
  IC50: 10 µM
Neural stem cells (NSCs) [2]
  concentration inducing neural stem cells differentiation into astrocytes: 2.5 to 10 µM
astrocytes
  cytotoxicity toward astrocytes (cell number by Hoechst 33342 positive cells vs control): No significant cytotoxicity
Neural stem cells (NSCs) [3]
  neuronal differentiation of NSCs (ratio of NeuO positive cells to whole cells vs control): inhibiting neuronal differentiation of NSCs
